Data taken from ChEMBL document CHEMBL1135773, “Purine and pyrimidine (P2) receptors as drug targets” (J Med Chem, 2002).

Assays:
[1] = target: P2X purinoceptor 7 (Rattus norvegicus, UniProt Q64663); assay: The compound was evaluated for antagonist activity against P2X purinoceptor 7 (P2X7) in rat parotid acinar cells; assay type: functional, cell-based
[2] = target: T1, P2X purinoceptor 1 (Rattus norvegicus, UniProt P47824); assay: Dissociation constant of the compound at P2X purinoceptor 1 (P2X1) from rat vas deferens was reported
T1 sequence (P47824 whole entry): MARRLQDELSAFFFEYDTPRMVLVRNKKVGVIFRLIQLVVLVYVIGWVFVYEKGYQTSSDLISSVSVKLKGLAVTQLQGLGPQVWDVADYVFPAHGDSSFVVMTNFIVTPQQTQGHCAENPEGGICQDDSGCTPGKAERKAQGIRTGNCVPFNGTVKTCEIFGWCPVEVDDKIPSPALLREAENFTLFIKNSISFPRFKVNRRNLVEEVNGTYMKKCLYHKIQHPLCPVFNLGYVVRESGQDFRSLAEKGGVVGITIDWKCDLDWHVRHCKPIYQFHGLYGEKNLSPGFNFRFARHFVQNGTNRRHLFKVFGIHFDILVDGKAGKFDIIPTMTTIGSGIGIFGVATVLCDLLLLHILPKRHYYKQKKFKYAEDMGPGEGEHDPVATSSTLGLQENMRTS

[3] = target: T1, P2X purinoceptor 1; assay: The compound was evaluated for antagonist activity against P2X purinoceptor 1 (P2X1) from rat vas deferens; assay type: functional
[4] = target: T2, P2X purinoceptor 4 (Rattus norvegicus, UniProt P51577); assay: The compound was evaluated for antagonist activity against recombinant rat P2X purinoceptor 4 (P2X4) at 10 uM; assay type: functional
T2 sequence (P51577 whole entry): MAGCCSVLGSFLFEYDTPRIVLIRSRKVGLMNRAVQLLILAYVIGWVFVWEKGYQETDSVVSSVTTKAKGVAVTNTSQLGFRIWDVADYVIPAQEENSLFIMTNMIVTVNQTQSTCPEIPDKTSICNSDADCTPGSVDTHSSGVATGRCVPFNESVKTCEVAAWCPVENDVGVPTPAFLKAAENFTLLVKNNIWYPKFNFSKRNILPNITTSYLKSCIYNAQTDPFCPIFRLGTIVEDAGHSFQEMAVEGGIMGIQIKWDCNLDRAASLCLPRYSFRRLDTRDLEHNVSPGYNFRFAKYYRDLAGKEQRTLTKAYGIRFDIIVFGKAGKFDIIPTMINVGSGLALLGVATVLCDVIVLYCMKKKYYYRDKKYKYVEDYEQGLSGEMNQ

[5] = target: T1, P2X purinoceptor 1; assay: The compound was evaluated for antagonist activity against recombinant rat P2X purinoceptor 1 (P2X1); assay type: functional
[6] = target: T2, P2X purinoceptor 4; assay: The compound was evaluated for antagonist activity against recombinant rat P2X purinoceptor 4 (P2X4) 3 uM; assay type: functional
[7] = target: T3, P2X purinoceptor 2 (Rattus norvegicus, UniProt P49653); assay: The compound was evaluated for antagonist activity against recombinant rat P2X purinoceptor 2 (P2X2) at 30 uM; assay type: functional
T3 sequence (P49653 whole entry): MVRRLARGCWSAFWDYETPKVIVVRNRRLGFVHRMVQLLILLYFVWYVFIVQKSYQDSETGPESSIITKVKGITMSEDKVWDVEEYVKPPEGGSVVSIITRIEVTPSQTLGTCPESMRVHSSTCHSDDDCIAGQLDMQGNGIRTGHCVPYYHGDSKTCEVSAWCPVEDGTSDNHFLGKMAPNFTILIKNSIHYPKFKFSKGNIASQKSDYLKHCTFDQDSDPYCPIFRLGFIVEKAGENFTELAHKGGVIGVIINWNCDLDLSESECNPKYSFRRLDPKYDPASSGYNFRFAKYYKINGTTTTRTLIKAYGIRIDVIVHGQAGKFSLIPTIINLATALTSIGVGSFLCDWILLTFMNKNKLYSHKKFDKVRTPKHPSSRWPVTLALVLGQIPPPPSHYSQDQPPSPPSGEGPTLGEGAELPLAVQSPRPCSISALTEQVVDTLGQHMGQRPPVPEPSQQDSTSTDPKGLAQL

[8] = target: T4, P2X purinoceptor 3 (Homo sapiens, UniProt P56373); assay: The compound was evaluated for antagonist activity against recombinant human P2X purinoceptor 3 (P2X3 ); assay type: functional
T4 sequence (P56373 whole entry): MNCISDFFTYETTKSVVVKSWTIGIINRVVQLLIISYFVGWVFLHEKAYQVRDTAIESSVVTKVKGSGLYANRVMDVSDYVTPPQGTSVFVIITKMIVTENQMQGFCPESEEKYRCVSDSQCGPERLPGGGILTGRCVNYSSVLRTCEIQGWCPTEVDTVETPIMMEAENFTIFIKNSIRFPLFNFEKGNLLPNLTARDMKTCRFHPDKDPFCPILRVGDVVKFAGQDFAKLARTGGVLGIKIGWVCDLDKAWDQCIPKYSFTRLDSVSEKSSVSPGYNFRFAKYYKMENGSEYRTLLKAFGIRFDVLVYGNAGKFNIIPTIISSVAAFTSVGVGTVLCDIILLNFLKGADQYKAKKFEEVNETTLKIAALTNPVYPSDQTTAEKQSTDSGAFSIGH

[9] = target: T5, P2X purinoceptor 4 (Homo sapiens, UniProt Q99571); assay: The compound was evaluated for antagonist activity against recombinant human P2X purinoceptor 4 (P2X4); assay type: functional
T5 sequence (Q99571 whole entry): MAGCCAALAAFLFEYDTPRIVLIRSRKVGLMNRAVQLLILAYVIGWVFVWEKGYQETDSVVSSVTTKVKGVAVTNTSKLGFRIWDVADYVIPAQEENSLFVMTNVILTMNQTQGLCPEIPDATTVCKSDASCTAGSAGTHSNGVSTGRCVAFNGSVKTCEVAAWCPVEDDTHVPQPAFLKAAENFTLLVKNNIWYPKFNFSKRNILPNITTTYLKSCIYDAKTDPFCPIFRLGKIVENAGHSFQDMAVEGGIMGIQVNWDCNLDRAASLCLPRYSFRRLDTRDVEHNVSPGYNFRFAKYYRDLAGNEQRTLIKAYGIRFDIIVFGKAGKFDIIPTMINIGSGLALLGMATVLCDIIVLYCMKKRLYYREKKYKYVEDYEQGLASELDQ

[10] = target: T6, P2X purinoceptor 1 (Homo sapiens, UniProt P51575); assay: The compound was evaluated for antagonist activity against recombinant human P2X purinoceptor 1 (P2X1 ); assay type: functional
T6 sequence (P51575 whole entry): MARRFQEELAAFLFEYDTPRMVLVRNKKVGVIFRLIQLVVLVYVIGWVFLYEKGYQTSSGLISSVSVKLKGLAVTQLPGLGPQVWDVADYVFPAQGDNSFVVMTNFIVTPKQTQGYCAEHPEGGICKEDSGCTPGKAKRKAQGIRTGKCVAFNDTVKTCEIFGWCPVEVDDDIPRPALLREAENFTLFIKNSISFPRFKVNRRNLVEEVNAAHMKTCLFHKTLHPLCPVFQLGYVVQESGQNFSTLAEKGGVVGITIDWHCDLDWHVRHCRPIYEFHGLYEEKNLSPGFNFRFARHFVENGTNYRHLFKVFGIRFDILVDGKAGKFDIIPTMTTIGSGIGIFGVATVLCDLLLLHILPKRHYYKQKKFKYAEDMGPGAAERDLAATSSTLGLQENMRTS

[11] = target: T3, P2X purinoceptor 2; assay: The compound was evaluated for antagonist activity against recombinant rat P2X purinoceptor 2 (P2X2) at 10 uM; assay type: functional
[12] = target: T1, P2X purinoceptor 1; assay: The compound was evaluated for antagonist activity against recombinant rat P2X purinoceptor 1 (P2X1) at 1 uM, expressed in Xenopus oocytes; assay type: functional, cell-based, Oocyte
[13] = target: P2X purinoceptor 3 (Rattus norvegicus, UniProt P49654); assay: The compound was evaluated for antagonist activity against recombinant rat P2X purinoceptor 3 (P2X3) at 3 uM, expressed in Xenopus oocytes; assay type: functional, cell-based, Oocyte
[14] = target: T1, P2X purinoceptor 1; assay: The compound was evaluated for antagonist activity against P2X purinoceptor 1 (P2X1) like receptor from rat vas deferens; assay type: functional
[15] = target: P2Y purinoceptor 1 (Cavia porcellus); assay: The compound was evaluated for antagonistic activity at P2Y purinoceptor 1 (P2Y1) from guinea pig taenia coli
[16] = target: T7, P2Y purinoceptor 11 (Homo sapiens, UniProt Q96G91); assay: Agonist activity against phospholipase C coupled human P2Y purinoceptor 11 (P2Y11); assay type: functional
T7 sequence (Q96G91 whole entry): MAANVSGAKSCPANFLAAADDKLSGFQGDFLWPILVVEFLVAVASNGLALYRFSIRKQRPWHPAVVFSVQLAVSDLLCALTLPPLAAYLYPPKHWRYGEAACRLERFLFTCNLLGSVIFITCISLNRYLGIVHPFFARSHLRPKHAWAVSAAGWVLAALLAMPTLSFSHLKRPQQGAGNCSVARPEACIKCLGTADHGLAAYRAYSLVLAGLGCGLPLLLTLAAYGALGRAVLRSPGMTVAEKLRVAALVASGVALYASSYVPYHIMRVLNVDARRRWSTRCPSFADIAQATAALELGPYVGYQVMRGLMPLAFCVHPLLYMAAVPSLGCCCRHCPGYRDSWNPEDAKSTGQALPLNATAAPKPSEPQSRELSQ

[17] = target: P2Y purinoceptor 12 (Homo sapiens, UniProt Q9H244); assay: The compound was evaluated for antagonist activity against phospholipase C coupled human P2Y purinoceptor 12 (P2Y12); assay type: functional
[18] = target: P2Y purinoceptor 1 (Meleagris gallopavo); assay: The compound was evaluated for antagonist activity against phospholipase C coupled P2Y purinoceptor 1 (P2Y1) of turkey erythrocytes
[19] = target: T8, P2X purinoceptor 5 (Rattus norvegicus, UniProt P51578); assay: Antagonist activity against recombinant rat P2X purinoceptor 5 (P2X5); assay type: functional
T8 sequence (P51578 whole entry): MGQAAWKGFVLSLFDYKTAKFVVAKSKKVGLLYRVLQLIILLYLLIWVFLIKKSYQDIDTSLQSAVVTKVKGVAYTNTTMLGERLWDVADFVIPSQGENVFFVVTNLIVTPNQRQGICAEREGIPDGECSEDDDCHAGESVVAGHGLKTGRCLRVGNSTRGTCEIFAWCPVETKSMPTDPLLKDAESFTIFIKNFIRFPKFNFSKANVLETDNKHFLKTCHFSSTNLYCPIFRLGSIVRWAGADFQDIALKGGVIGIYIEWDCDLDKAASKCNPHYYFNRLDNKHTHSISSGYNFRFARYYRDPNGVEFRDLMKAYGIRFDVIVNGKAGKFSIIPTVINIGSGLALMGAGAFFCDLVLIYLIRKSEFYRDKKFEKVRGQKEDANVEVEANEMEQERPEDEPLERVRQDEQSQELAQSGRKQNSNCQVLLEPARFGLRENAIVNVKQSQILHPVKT

[20] = target: P2Y purinoceptor 6 (Homo sapiens, UniProt Q15077); assay: The compound was evaluated for antagonist activity against phospholipase C coupled recombinant human P2Y purinoceptor 6 (P2Y6); assay type: functional; conditions: concentration not given here
[21] = target: T7, P2Y purinoceptor 11; assay: The compound was evaluated for antagonist activity against phospholipase C coupled human P2Y purinoceptor 11 (P2Y11); assay type: functional
[22] = target: P2Y purinoceptor 2 (Homo sapiens, UniProt P41231); assay: Evaluated for agonist activity against phospholipase C coupled recombinant human P2Y purinoceptor 2 (P2Y2); assay type: functional
[23] = target: P2X purinoceptor 6 (Rattus norvegicus, UniProt P51579); assay: Antagonist activity against recombinant rat P2X purinoceptor 6 (P2X6 ); assay type: functional
[24] = target: P2Y purinoceptor 12 (Rattus norvegicus, UniProt Q9EPX4); assay: Antagonist activity against phospholipase C coupled rat P2Y purinoceptor 12 (P2Y12); assay type: functional
[25] = target: P2Y purinoceptor 1 (Meleagris gallopavo, UniProt P49652); assay: Evaluated for antagonist activity against phospholipase C coupled P2Y purinoceptor 1 (P2Y1) of turkey erythrocytes; assay type: functional
[26] = target: T3, P2X purinoceptor 2; assay: The compound was evaluated for antagonist activity against recombinant rat receptor P2X purinoceptor 2 (P2X2) at 30 uM, expressed in Xenopus oocytes; assay type: functional, cell-based, Oocyte
[27] = target: T2, P2X purinoceptor 4; assay: Antagonist activity against recombinant rat P2X purinoceptor 4 (P2X4) at 3 uM, expressed in Xenopus oocytes; assay type: functional, cell-based, Oocyte
[28] = target: P2Y purinoceptor 4 (Homo sapiens, UniProt P51582); assay: The compound was evaluated for antagonist activity against phospholipase C coupled recombinant human P2Y purinoceptor 4 (P2Y4); assay type: functional
Chain of P2Y purinoceptor 4 (P51582 whole entry): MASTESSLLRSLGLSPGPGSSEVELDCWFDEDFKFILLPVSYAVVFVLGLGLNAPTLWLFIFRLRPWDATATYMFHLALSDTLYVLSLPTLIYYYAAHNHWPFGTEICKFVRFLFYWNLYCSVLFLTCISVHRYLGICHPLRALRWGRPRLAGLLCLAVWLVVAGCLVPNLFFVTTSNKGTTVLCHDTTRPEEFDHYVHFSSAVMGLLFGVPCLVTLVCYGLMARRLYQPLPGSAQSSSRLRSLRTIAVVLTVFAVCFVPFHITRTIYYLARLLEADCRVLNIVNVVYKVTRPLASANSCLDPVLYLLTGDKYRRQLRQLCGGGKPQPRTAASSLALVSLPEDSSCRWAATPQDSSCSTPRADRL

Chain of P2Y purinoceptor 1 (P49652 whole entry): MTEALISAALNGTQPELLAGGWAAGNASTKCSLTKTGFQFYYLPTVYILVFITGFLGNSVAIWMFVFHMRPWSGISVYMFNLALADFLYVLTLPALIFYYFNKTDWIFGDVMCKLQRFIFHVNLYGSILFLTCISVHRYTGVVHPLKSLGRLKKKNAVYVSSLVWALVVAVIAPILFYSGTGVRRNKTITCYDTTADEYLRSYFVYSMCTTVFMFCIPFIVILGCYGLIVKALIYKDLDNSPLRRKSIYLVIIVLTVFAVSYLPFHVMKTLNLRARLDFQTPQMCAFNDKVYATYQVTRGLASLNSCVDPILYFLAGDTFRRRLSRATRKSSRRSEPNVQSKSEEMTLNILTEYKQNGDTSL
Chain of P2Y purinoceptor 2 (P41231 whole entry): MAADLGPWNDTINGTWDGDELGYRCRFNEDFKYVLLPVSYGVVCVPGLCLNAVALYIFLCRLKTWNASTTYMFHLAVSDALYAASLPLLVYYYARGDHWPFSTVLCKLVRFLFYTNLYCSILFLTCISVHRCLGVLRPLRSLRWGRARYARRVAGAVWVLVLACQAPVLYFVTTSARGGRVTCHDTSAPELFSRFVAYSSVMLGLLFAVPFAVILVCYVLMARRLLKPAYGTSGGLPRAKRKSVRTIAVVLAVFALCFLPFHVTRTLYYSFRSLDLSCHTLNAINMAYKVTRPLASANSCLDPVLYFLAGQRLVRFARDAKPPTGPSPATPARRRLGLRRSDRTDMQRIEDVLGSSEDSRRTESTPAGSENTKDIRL
Chain of P2Y purinoceptor 6 (Q15077 whole entry): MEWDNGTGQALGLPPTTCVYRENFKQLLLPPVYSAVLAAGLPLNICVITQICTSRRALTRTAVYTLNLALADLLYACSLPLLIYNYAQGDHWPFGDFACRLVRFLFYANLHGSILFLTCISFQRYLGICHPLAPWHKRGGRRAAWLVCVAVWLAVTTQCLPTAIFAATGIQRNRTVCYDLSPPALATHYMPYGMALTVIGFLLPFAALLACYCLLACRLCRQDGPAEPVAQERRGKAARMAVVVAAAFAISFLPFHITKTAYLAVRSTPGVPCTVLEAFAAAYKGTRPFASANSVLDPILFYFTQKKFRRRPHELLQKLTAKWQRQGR
Chain of P2Y purinoceptor 12 (Homo sapiens, UniProt Q9H244) (Q9H244 whole entry): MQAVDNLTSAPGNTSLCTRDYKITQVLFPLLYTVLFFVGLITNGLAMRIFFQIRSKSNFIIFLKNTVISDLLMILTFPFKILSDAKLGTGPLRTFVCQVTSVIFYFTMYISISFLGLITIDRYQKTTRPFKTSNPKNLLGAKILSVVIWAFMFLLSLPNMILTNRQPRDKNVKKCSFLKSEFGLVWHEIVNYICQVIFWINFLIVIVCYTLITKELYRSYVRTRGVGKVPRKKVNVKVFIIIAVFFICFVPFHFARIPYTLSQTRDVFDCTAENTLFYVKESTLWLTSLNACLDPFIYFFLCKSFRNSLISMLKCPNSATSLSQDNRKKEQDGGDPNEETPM
Chain of P2X purinoceptor 6 (P51579 whole entry): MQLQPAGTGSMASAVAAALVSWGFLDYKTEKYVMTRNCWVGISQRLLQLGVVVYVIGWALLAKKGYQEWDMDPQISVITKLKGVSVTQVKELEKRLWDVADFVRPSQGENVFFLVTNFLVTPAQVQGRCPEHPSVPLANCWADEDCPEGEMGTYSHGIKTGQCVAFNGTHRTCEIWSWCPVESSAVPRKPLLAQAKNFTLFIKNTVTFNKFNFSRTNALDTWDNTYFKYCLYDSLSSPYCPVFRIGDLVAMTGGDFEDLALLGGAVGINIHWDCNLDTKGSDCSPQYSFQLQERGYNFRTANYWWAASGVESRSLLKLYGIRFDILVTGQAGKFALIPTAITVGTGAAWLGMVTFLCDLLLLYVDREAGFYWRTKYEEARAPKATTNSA
Chain of P2Y purinoceptor 12 (Rattus norvegicus, UniProt Q9EPX4) (Q9EPX4 whole entry): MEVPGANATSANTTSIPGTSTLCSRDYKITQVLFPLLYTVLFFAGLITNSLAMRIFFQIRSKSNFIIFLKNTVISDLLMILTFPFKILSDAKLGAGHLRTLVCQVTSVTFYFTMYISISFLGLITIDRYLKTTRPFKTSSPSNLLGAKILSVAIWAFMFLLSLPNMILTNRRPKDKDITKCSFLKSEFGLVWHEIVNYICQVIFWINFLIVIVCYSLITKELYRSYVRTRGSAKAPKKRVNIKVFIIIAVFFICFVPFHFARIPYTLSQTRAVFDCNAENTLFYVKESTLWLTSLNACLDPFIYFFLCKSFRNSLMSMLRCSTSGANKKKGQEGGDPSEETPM
Chain of P2X purinoceptor 7 (Q64663 whole entry): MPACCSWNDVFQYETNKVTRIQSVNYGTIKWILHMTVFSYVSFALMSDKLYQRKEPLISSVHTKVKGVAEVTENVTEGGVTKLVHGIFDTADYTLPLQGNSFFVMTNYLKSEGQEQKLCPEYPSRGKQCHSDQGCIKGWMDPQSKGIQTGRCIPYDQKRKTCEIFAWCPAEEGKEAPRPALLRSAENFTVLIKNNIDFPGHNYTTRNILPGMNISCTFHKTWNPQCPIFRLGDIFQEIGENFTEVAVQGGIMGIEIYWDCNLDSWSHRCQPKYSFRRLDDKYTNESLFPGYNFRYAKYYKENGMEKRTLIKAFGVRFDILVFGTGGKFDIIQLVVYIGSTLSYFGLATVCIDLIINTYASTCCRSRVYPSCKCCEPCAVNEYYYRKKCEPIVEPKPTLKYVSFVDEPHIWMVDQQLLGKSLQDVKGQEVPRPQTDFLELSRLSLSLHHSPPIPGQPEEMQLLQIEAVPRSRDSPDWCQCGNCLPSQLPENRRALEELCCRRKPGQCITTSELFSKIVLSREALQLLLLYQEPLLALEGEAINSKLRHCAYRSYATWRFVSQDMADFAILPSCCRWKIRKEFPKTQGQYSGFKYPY
Chain of P2X purinoceptor 3 (Rattus norvegicus, UniProt P49654) (P49654 whole entry): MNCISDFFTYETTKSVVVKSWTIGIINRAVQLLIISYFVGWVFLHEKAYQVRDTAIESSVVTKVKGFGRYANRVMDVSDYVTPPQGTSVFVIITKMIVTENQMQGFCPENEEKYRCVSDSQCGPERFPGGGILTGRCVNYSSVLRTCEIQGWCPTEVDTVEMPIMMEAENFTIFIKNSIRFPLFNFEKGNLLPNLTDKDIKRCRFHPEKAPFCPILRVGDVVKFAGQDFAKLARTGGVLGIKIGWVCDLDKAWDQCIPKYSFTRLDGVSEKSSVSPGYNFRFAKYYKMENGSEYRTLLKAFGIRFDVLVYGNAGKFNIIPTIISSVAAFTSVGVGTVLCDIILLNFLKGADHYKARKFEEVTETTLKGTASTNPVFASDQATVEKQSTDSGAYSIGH

O=S(=O)(O)c1cc(N=C=S)ccc1/C=C/c1ccc(N=C=S)cc1S(=O)(=O)O
IC50 [1]: 35 µM

Nc1c(S(=O)(=O)O)cc(Nc2ccc(Nc3nc(Cl)nc(Nc4ccccc4S(=O)(=O)O)n3)c(S(=O)(=O)O)c2)c2c1C(=O)c1ccccc1C2=O [CIBACRON BLUE 3GA]
Kd [2]: 1.6 µM
IC50 [3]: 9.6 µM

Cc1ncc(COP(=O)(O)O)c(C=O)c1O [PYRIDOXAL PHOSPHATE ANHYDROUS]
EC50 [4]: 219 µM
EC50 [5]: 3 µM

Cc1ncc2c(c1O)COP(=O)(O)OC2
IC50 [6]: > 100 µM
EC50 [5]: 10.2 µM
EC50 [7]: 100 µM

O=C(Nc1cccc(C(=O)Nc2ccc(S(=O)(=O)O)c3cc(S(=O)(=O)O)cc(S(=O)(=O)O)c23)c1)Nc1cccc(C(=O)Nc2ccc(S(=O)(=O)O)c3cc(S(=O)(=O)O)cc(S(=O)(=O)O)c23)c1
IC50 [8]: 28.5 µM
IC50 [9]: > 100 µM
IC50 [10]: 0.21 µM
IC50 [11]: > 50 µM

Cc1nc(/N=N/c2cc(CP(=O)(O)O)cc(CP(=O)(O)O)c2)c(COP(=O)(O)O)c(C=O)c1O
EC50 [12]: 0.005 µM
EC50 [13]: 0.022 µM

Nc1c(S(=O)(=O)O)cc(Nc2ccc(Nc3nc(Cl)nc(Cl)n3)cc2S(=O)(=O)O)c2c1C(=O)c1ccccc1C2=O
IC50 [14]: 1.6 µM
IC50 [15]: < 1 µM

CCCSc1nc(N)c2ncn([C@@H]3O[C@H](COP(=O)(O)OP(=O)(O)C(Cl)(Cl)P(=O)(O)O)[C@@H](O)[C@H]3O)c2n1
EC50 [16]: 1.5 µM
EC50 [17]: 0.0013 µM

CNc1nc(Cl)nc2c1ncn2CCC(COP(=O)(O)O)COP(=O)(O)O
EC50 [18]: 0.84 µM

Cc1ccc(C(=O)Nc2ccc(S(=O)(=O)O)c3cc(S(=O)(=O)O)cc(S(=O)(=O)O)c23)cc1NC(=O)c1cccc(NC(=O)Nc2cccc(C(=O)Nc3cc(C(=O)Nc4ccc(S(=O)(=O)O)c5cc(S(=O)(=O)O)cc(S(=O)(=O)O)c45)ccc3C)c2)c1 [SURAMIN]
EC50 [19]: 4 µM
EC50 [12]: 1 µM
inhibition [20]: 27%
EC50 [21]: 16 µM
EC50 [22]: 48 µM
EC50 [23]: > 100 µM
EC50 [24]: 4 µM
EC50 [25]: > 10 µM
EC50 [26]: 10.4 µM
EC50 [27]: > 100 µM
EC50 [28]: > 100 µM
